Reference: BindingDB's records for patent US12202839 (University of Virginia Patent Foundation, 2025)

Target: Protein tyrosine phosphatase type IVA 3 (Homo sapiens, UniProt O75365)
Experiment: PTP4A3 Enzymatic Assay

Chain of Protein tyrosine phosphatase type IVA 3 (O75365 whole entry): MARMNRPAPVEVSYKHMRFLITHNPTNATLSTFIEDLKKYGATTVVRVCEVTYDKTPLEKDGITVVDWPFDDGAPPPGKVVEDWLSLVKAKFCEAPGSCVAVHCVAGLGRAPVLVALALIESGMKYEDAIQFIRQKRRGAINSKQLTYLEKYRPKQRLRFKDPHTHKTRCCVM

IC50: 162 nM
SMILES: O=C1NC(=O)c2sc(-c3ccccc3)cc2C1=O [US12202839, Compound 15]
